This test has as its target T1, ALK (Homo sapiens, UniProt Q9UM73).
T1 construct: purchased Millipore
The test can be described thus: ALK kinase assay (HTRF). To be noted: apparent Ki from IC50 by Cheng-Prusoff; ALK (Millipore) 3 nM or 4 nM, 50 μM ATP, 1 h at room temperature; read-out: HTRF_ALK Human - Ki. Type of test: biochemical.

Broadly, the pKi is −log10 of the Ki, conventionally taken in molar units.

pKi: −log10 of the molar value. A value given as a limit tells only on which side of the number the result lay.

T1 sequence (Q9UM73 19-1620): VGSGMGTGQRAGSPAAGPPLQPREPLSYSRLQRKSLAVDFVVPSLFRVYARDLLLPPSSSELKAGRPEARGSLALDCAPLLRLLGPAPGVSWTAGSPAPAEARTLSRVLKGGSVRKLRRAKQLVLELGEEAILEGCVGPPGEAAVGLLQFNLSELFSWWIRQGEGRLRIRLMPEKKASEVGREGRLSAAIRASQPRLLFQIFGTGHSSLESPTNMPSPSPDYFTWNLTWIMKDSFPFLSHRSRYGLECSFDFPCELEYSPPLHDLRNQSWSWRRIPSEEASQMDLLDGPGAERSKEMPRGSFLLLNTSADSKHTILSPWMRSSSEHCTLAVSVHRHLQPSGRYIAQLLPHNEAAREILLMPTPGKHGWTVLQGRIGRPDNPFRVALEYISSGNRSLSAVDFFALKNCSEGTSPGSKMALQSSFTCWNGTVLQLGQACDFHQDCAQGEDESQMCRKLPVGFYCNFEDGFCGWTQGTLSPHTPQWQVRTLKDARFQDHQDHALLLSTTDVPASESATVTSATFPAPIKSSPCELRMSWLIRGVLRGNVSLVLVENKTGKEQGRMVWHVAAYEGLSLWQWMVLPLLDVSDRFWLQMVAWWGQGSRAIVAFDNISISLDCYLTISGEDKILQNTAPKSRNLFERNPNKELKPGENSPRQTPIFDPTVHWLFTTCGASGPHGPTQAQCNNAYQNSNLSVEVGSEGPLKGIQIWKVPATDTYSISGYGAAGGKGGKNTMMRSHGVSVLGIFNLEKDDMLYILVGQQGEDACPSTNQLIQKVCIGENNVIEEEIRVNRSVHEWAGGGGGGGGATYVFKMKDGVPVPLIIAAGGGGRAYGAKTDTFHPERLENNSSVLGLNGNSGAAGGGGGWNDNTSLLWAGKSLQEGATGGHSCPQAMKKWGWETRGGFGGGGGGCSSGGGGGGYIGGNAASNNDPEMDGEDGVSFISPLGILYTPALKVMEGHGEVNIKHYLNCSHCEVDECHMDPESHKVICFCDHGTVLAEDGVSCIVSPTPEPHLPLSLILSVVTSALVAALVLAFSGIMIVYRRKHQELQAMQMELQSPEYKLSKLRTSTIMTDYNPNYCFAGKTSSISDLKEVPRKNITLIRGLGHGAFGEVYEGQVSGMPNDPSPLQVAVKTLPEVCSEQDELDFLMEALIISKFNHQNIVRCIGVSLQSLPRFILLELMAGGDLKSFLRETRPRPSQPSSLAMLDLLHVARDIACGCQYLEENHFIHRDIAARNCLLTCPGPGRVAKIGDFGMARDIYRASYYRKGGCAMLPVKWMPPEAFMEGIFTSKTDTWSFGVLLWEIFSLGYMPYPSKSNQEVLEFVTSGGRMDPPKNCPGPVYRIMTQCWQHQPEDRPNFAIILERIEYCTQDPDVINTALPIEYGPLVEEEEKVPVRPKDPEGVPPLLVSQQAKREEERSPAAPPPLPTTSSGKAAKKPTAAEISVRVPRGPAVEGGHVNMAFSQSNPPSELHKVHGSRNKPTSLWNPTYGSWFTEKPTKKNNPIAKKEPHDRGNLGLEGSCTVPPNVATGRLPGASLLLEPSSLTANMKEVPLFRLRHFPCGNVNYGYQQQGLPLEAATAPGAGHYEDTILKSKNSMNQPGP

As for `COc1cc(N2CCNCC2)ccc1Nc1nc(Cc2c(Cl)cccc2Cl)cc2c1C(=O)NCN2` [Example 1, 7-(2,6-dichlorobenzyl)-5-{[2-methoxy-4-(piperazin-1-yl)phenyl]amino}-2,3-dihydropyrido[4,3-d]pyrimidin-4(1H)-one], the pKi is 7.96.

On to `COc1cc(N2CCNCC2)ccc1Nc1nc(Cc2c(Cl)cccc2Cl)cc2cnnc(O)c12` [Example 2, 7-(2,6-dichlorobenzyl)-5-{[2-methoxy-4-(piperazin-1-yl)phenyl]amino}pyrido[3,4-d]pyridazin-4-ol], for which the pKi is 8.85.

Turning to `COc1cc(N2CCNCC2)ccc1Nc1cc(Cc2c(Cl)cccc2Cl)nc2c1C(=O)NCCN2` [Example 3, 8-(2,6-dichlorobenzyl)-6-{[2-methoxy-4-(piperazin-1-yl)phenyl]amino}-1,2,3,4-tetrahydro-5H-pyrido[2,3-e][1,4]diazepin-5-one], the pKi was 6.18.

On to `O=C1NCCNc2nc(Cc3c(Cl)cccc3Cl)cc(Nc3ccc(N4CCNCC4)cc3)c21` [Example 4, 8-(2,6-dichlorobenzyl)-6-{[4-(piperazin-1-yl)phenyl]amino}-1,2,3,4-tetrahydro-5H-pyrido[2,3-e][1,4]diazepin-5-one], for which the pKi was 6.03.

Take `Oc1nncc2cc(Cc3c(Cl)cccc3Cl)nc(Nc3ccc(N4CCNCC4)cc3)c12` [Example 5, 7-(2,6-dichlorobenzyl)-5-{[4-(piperazin-1-yl)phenyl]amino}pyrido[3,4-d]pyridazin-4-ol]: the pKi was 9.00.

In the case of `O=C1NCCNc2cc(Cc3c(Cl)cccc3Cl)nc(Nc3ccc(N4CCNCC4)cc3)c21` [Example 6, 8-(2,6-dichlorobenzyl)-6-{[4-(piperazin-1-yl)phenyl]amino}-1,2,3,4-tetrahydro-5H-pyrido[4,3-e][1,4]diazepin-5-one], the pKi is 6.22.

In the case of `Cc1cc(Nc2nc(Cc3c(Cl)cccc3Cl)cc3cn[nH]c(=O)c23)ccc1N1CCNCC1` [Example 7, 7-(2,6-dichlorobenzyl)-5-{[3-methyl-4-(piperazin-1-yl)phenyl]amino}pyrido[3,4-d]pyridazin-4(3H)-one], the pKi is 9.00.

As to `COc1cc(N2CCN(C3CCCCC3)CC2)ccc1Nc1nc(Cc2c(Cl)cccc2Cl)cc2cn[nH]c(=O)c12` [Example 8, 5-{[4-(4-cyclohexylpiperazin-1-yl)-2-methoxyphenyl]amino}-7-(2,6-dichlorobenzyl)pyrido[3,4-d]pyridazin-4(3H)-one], the pKi is less than 6.33.

As to `COc1cc(N2CCN(C(=O)c3ccccc3)CC2)ccc1Nc1nc(Cc2c(Cl)cccc2Cl)cc2cnnc(O)c12` [Example 9, [4-(4-{[7-(2,6-dichlorobenzyl)-4-hydroxypyrido[3,4-d]pyridazin-5-yl]amino}-3-methoxyphenyl)piperazin-1-yl](phenyl)methanone], the pKi was less than 6.33.

As to `COc1cc(N2CCNCC2)ccc1Nc1nc(Nc2c(Cl)cccc2Cl)cc2cnnc(O)c12` [Example 10, 7-[(2,6-dichlorophenyl)amino]-5-{[2-methoxy-4-(piperazin-1-yl)phenyl]amino}pyrido[3,4-d]pyridazin-4-ol], the pKi is 8.70.

Turning to `COc1cc(N2CCN(S(=O)(=O)C(C)C)CC2)ccc1Nc1nc(Cc2c(Cl)cccc2Cl)cc2cnnc(O)c12` [Example 11, 7-(2,6-dichlorobenzyl)-5-({2-methoxy-4-[4-(propan-2-ylsulfonyl)piperazin-1-yl]phenyl}amino)pyrido[3,4-d]pyridazin-4-ol], the negative logarithm of the Ki (pKi) is less than 5.33.

Consider `COc1cc(N2CCN(C(=O)CN(C)C)CC2)ccc1Nc1nc(Cc2c(Cl)cccc2Cl)cc2cnnc(O)c12` [Example 12, 1-[4-(4-{[7-(2,6-dichlorobenzyl)-4-hydroxypyrido[3,4-d]pyridazin-5-yl]amino}-3-methoxyphenyl)piperazin-1-yl]-2-(dimethylamino)ethanone], for which the pKi was 8.52.

In the case of `O=c1[nH]ncc2cc(Cc3c(Cl)cccc3Cl)nc(Nc3ccc(N4CCNCC4)c(Cl)c3)c12` [Example 13, 5-{[3-chloro-4-(piperazin-1-yl)phenyl]amino}-7-(2,6-dichlorobenzyl)pyrido[3,4-d]pyridazin-4(3H)-one], the pKi was 9.00.

As for `O=c1[nH]ncc2cc(Cc3c(Cl)cccc3Cl)nc(Nc3ccc(N4CCNCC4)cn3)c12` [Example 14, 7-(2,6-dichlorobenzyl)-5-{[5-(piperazin-1-yl)pyridin-2-yl]amino}pyrido[3,4-d]pyridazin-4(3H)-one], the pKi is 7.89.

`COc1cc(N2CCN(C3CCN(C)CC3)CC2)ccc1Nc1nc(Cc2c(Cl)cccc2Cl)cc2cn[nH]c(=O)c12` [Example 15, 7-(2,6-dichlorobenzyl)-5-({2-methoxy-4-[4-(1-methylpiperidin-4-yl)piperazin-1-yl]phenyl}amino)pyrido[3,4-d]pyridazin-4(3H)-one]: the pKi is 8.52.

`COc1cc(N2CCN(CCC(C)C)CC2)ccc1Nc1nc(Cc2c(Cl)cccc2Cl)cc2cn[nH]c(=O)c12` [Example 16, 7-(2,6-dichlorobenzyl)-5-({2-methoxy-4-[4-(3-methylbutyl)piperazin-1-yl]phenyl}amino)pyrido[3,4-d]pyridazin-4(3H)-one]: the pKi was less than 5.33.

As to `COc1cc(CCN2CCCC2)ccc1Nc1nc(Cc2c(Cl)cccc2Cl)cc2cn[nH]c(=O)c12` [Example 17, 7-(2,6-dichlorobenzyl)-5-({2-methoxy-4-[2-(pyrrolidin-1-yl)ethyl]phenyl}amino)pyrido[3,4-d]pyridazin-4(3H)-one], the pKi is 8.22.

As to `COc1cc(CC(=O)N2CCCC2)ccc1Nc1nc(Cc2c(Cl)cccc2Cl)cc2cn[nH]c(=O)c12` [Example 18, 7-(2,6-dichlorobenzyl)-5-({2-methoxy-4-[2-oxo-2-(pyrrolidin-1-yl)ethyl]phenyl}amino)pyrido[3,4-d]pyridazin-4(3H)-one], the pKi was 5.51.

`COc1cc(N2CCN(C(=O)CC(C)C)CC2)ccc1Nc1nc(Cc2c(Cl)cccc2Cl)cc2cn[nH]c(=O)c12` [Example 19, 7-(2,6-dichlorobenzyl)-5-({2-methoxy-4-[4-(3-methylbutanoyl)piperazin-1-yl]phenyl}amino)pyrido[3,4-d]pyridazin-4(3H)-one]: the pKi is less than 5.33.

Take `O=c1[nH]ncc2cc(Cc3c(Cl)cccc3Cl)nc(Nc3cc(F)c(N4CCNCC4)cc3F)c12` [Example 20, 7-(2,6-dichlorobenzyl)-5-{[2,5-difluoro-4-(piperazin-1-yl)phenyl]amino}pyrido[3,4-d]pyridazin-4(3H)-one]: the pKi was 8.52.

With `Cc1cc(N2CCNCC2)cc(C)c1Nc1nc(Cc2c(Cl)cccc2Cl)cc2cnnc(O)c12` [Example 21, 7-(2,6-dichlorobenzyl)-5-{[2,6-dimethyl-4-(piperazin-1-yl)phenyl]amino}pyrido[3,4-d]pyridazin-4-ol], the pKi was 6.43.

With `COc1cc(N2CCNCC2)ccc1Nc1nc(Nc2ccccc2S(=O)(=O)C(C)C)cc2cn[nH]c(=O)c12` [Example 22, 5-{[2-methoxy-4-(piperazin-1-yl)phenyl]amino}-7-{[2-(propan-2-ylsulfonyl)phenyl]amino}pyrido[3,4-d]pyridazin-4(3H)-one], the pKi was 8.70.

As for `COc1cc(N2CCNCC2)ccc1Nc1nc(NC2=N[C@H](C(C)C)CO2)cc2cnnc(O)c12` [Example 23, 5-{[2-methoxy-4-(piperazin-1-yl)phenyl]amino}-7-{[(4R)-4-(propan-2-yl)-4,5-dihydro-1,3-oxazol-2-yl]amino}pyrido[3,4-d]pyridazin-4-ol], the pKi was 7.68.

Regarding `COc1cc(N2CCNCC2)ccc1Nc1nc(Nc2ccccc2Cl)cc2cn[nH]c(=O)c12` [Example 24, 7-[(2-chlorophenyl)amino]-5-{[2-methoxy-4-(piperazin-1-yl)phenyl]amino}pyrido[3,4-d]pyridazin-4(3H)-one], the pKi was 8.40.

For `COc1cc(N2CCNCC2)ccc1Nc1nc(Nc2cc(Cl)ccc2F)cc2cn[nH]c(=O)c12` [Example 25, 7-[(5-chloro-2-fluorophenyl)amino]-5-{[2-methoxy-4-(piperazin-1-yl)phenyl]amino}pyrido[3,4-d]pyridazin-4(3H)-one], the pKi is 8.22.

Take `COc1cc(N2CCNCC2)ccc1Nc1nc(Nc2cc(F)ccc2Cl)cc2cn[nH]c(=O)c12` [Example 27, 7-[(2-chloro-5-fluorophenyl)amino]-5-{[2-methoxy-4-(piperazin-1-yl)phenyl]amino}pyrido[3,4-d]pyridazin-4(3H)-one]: the pKi was 8.52.

Regarding `COc1cc(N2CCNCC2)ccc1Nc1nc(Nc2cc(Cl)ccc2Cl)cc2cn[nH]c(=O)c12` [Example 28, 7-[(2,5-dichlorophenyl)amino]-5-{[2-methoxy-4-(piperazin-1-yl)phenyl]amino}pyrido[3,4-d]pyridazin-4(3H)-one], the pKi was 8.40.

In the case of `COc1cc(N2CCNCC2)ccc1Nc1nc(Nc2c(F)cccc2Cl)cc2cn[nH]c(=O)c12` [Example 29, 7-[(2-chloro-6-fluorophenyl)amino]-5-{[2-methoxy-4-(piperazin-1-yl)phenyl]amino}pyrido[3,4-d]pyridazin-4(3H)-one], the pKi was 9.00.

`COc1cc(N2CCN(C)CC2)ccc1Nc1nc(Cc2c(Cl)cccc2Cl)cc2cn[nH]c(=O)c12` [Example 30, 7-(2,6-dichlorobenzyl)-5-{[2-methoxy-4-(4-methylpiperazin-1-yl)phenyl]amino}pyrido[3,4-d]pyridazin-4(3H)-one]: the pKi is 8.52.

Regarding `COc1cc(N2CCNCC2)ccc1Nc1nc(Nc2cc(Cl)cc(Cl)c2)cc2cn[nH]c(=O)c12` [Example 31, 7-[(3,5-dichlorophenyl)amino]-5-{[2-methoxy-4-(piperazin-1-yl)phenyl]amino}pyrido[3,4-d]pyridazin-4(3H)-one], the pKi is 7.72.

`COc1cc(N2CCNCC2)ccc1Nc1nc(Nc2c(F)cccc2F)cc2cn[nH]c(=O)c12` [Example 32, 7-[(2,6-difluorophenyl)amino]-5-{[2-methoxy-4-(piperazin-1-yl)phenyl]amino}pyrido[3,4-d]pyridazin-4(3H)-one]: the pKi was 8.70.

In the case of `COc1cc(N2CCNCC2)ccc1Nc1nc(Nc2c(Cl)cncc2Cl)cc2cn[nH]c(=O)c12` [Example 33, 7-[(3,5-dichloropyridin-4-yl)amino]-5-{[2-methoxy-4-(piperazin-1-yl)phenyl]amino}pyrido[3,4-d]pyridazin-4(3H)-one], the pKi was 9.70.
